Data published in patent US9765092B2, “Tricyclic piperidine compounds” (ACTELION PHARMACEUTICALS LTD, priority 2013, dated 2017).

Biological target: human TPH1 (Homo sapiens (Human), UniProt P17752)
Test: Biochemical in vitro assay using fluorescence readout (TPH1 inhibition)
[1] = human TPH1, fluorescence readout
[2] = full length human TPH1, 40 μM L-tryptophan, 15° C., 60 minutes, fluorescence at 540 nm, mean if determined several times

Sequence of human TPH1 (P17752 whole entry): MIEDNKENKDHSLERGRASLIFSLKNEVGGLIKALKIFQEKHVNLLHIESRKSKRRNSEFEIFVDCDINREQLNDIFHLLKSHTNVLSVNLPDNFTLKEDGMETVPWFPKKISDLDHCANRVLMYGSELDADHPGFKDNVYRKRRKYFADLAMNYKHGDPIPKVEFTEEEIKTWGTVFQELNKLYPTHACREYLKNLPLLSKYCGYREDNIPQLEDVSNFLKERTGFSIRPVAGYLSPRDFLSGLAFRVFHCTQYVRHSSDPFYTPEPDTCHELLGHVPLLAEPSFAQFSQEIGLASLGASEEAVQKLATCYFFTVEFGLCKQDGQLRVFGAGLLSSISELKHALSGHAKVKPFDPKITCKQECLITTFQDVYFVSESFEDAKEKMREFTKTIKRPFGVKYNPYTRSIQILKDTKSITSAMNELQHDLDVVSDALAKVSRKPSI

## Cc1nc(C)c(C2c3c(nc4sc(C)nn34)CCN2C(=O)COc2ccc(-c3ncco3)nc2Cl)s1 (centres unmarked) [Example 1.68.3, 2-((2-chloro-6-(oxazol-2-yl)pyridin-3-yl)oxy)-1-(5-(2,4-dimethylthiazol-5-yl)-2-methyl-7,8-dihydro-[1,3,4]thiadiazolo[2′,3′:2,3]imidazo[4,5-c]pyridin-6(5H)-yl)ethanone]
[1]
  IC50: 0.009 µM

## O=C(COc1ccc(C(F)(F)F)nc1Cl)N1CCc2nc3sccn3c2C1c1ncc(C2CC2)cc1F (centres unmarked) [Example 6.7.1, 2-((2-chloro-6-(trifluoromethyl)pyridin-3-yl)oxy)-1-(5-(5-cyclopropyl-3-fluoropyridin-2-yl)-7,8-dihydrothiazolo-[2′,3′:2,3]imidazo[4,5-c]pyridin-6(5H)-yl)ethanone]
[1]
  IC50: 0.011 µM

## Cc1nn2c3c(nc2s1)CCN(C(=O)COc1ccc(C(=O)N(C)C)nc1Cl)C3c1cccc(Cl)c1F (centres unmarked) [Example 1.58.1, 6-chloro-5-(2-(5-(3-chloro-2-fluorophenyl)-2-methyl-7,8-dihydro-[1,3,4]thiadiazolo[2′,3′:2,3]imidazo[4,5-c]pyridin-6(5H)-yl)-2-oxoethoxy)-N,N-dimethylpicolinamide]
[1]
  IC50: 0.042 µM

## Cc1nn2c3c(nc2s1)CCN(C(=O)COc1ccc(N2CCOCC2)cc1Cl)C3c1cnc(C2CC2)nc1 (centres unmarked) [Example 1.10.2, 2-(2-chloro-4-morpholinophenoxy)-1-(5-(2-cyclopropyl-pyrimidin-5-yl)-2-methyl-7,8-dihydro-[1,3,4]thiadiazolo [2′,3′:2,3]imidazo[4,5-c]pyridin-6(5H)-yl)ethanone]
[1]
  IC50: 0.018 µM

## Cc1nn2c3c(nc2s1)CCN(C(=O)COc1ccc(S(N)(=O)=O)cc1C)C3c1ccc(Cl)nc1F (centres unmarked) [Example 1.16.2, 4-(2-(5-(6-chloro-2-fluoropyridin-3-yl)-2-methyl-7,8-dihydro-[1,3,4]thiadiazolo[2′,3′:2,3]imidazo[4,5-c]pyridin-6(5H)-yl)-2-oxoethoxy)-3-methylbenzenesulfonamide]
[1]
  IC50: 0.074 µM

## O=C(COc1ccc(N2CCOCC2)cc1Cl)N1CC=C2N=C3SC=CN3C2[C@H]1c1ccc(Cl)cc1F (stereo partly drawn) [Example 6.4.2, 1-((5R)-5-(4-chloro-2-fluorophenyl)-4a,5-dihydro-thiazolo[2′,3′:2,3]imidazo[4,5-c]pyridin-6(7H)-yl)-2-(2-chloro-4-morpholinophenoxy)ethanone]
[1]
  IC50: 0.004 µM

## CNC(=O)c1csc(C2c3c(nc4sc(C)nn34)CCN2C(=O)COc2ccc(N3CCOCC3)nc2Cl)n1 (centres unmarked) [Example 1.44.2, 2-(6-(2-((2-Chloro-6-morpholinopyridin-3-yl)oxy)acetyl)-2-methyl-5,6,7,8-tetrahydro-[1,3,4]thiadiazolo[2′,3′:2,3]imidazo[4,5-c]pyridin-5-yl)-N-methylthiazole-4-carboxamide]
[2]
  IC50: 0.005 µM

## Cc1nn2c3c(nc2s1)CCN(C(=O)COc1ccc(N2CCOCC2)nc1Cl)C3c1cc(C(=O)N(C)C)cs1 (centres unmarked) [Example 1.9.1, 5-(6-(2-((2-chloro-6-morpholinopyridin-3-yl)oxy)acetyl)-2-methyl-5,6,7,8-tetrahydro-[1,3,4]thiadiazolo[2′,3′:2,3]imidazo[4,5-c]pyridin-5-yl)-N,N-dimethyl-thiophene-3-carboxamide]
[2]
  IC50: 0.005 µM

## Cc1nn2c3c(nc2s1)CCN(C(=O)COc1ccc(C(F)(F)F)nc1Cl)C3c1ncc(C2CC2)cc1F (centres unmarked) [Example 1.14.3, 2-((2-chloro-6-(trifluoromethyl)pyridin-3-yl)oxy)-1-(5-(5-cyclopropyl-3-fluoropyridin-2-yl)-2-methyl-7,8-dihydro-[1,3,4]thiadiazolo[2′,3′:2,3]imidazo[4,5-c]pyridin-6(5H)-yl)ethanone]
[1]
  IC50: 0.017 µM

## CCOC(=O)c1csc(C2c3c(nc4sc(C)nn34)CCN2C(=O)COc2ccc(N3CCOCC3)nc2Cl)n1 (centres unmarked) [Example 1.27.1, ethyl 2-(6-(2-((2-chloro-6-morpholinopyridin-3-yl)oxy)acetyl)-2-methyl-5,6,7,8-tetrahydro-[1,3,4]thiadiazolo[2′,3′:2,3]imidazo[4,5-c]pyridin-5-yl)thiazole-4-carboxylate]
[1]
  IC50: 0.007 µM

## O=C(COc1cccnc1Cl)N1CCc2nc3sccn3c2C1c1ccc(Cl)cc1F (centres unmarked) [Example 6.4.4, 1-(5-(4-chloro-2-fluorophenyl)-7,8-dihydrothiazolo-[2′,3′:2,3]imidazo[4,5-c]pyridin-6(5H)-yl)-2-((2-chloropyridin-3-yl)oxy)ethanone]
[1]
  IC50: 0.013 µM

## CCOC(=O)c1csc(C2c3c(nc4sc(C)nn34)CCN2C(=O)COc2ccc(C(F)(F)F)cc2Cl)n1 (centres unmarked) [Example 1.27.3, ethyl 2-(6-(2-(2-chloro-4-(trifluoromethyl)phenoxy)acetyl)-2-methyl-5,6,7,8-tetrahydro-[1,3,4]thiadiazolo[2′,3′:2,3]imidazo[4,5-c]pyridin-5-yl)thiazole-4-carboxylate]
[1]
  IC50: 0.245 µM

## Cc1nn2c3c(nc2s1)CCN(C(=O)COc1ccc(S(N)(=O)=O)cc1C)C3c1sccc1F (centres unmarked) [Example 1.23.2, 4-(2-(5-(3-fluorothiophen-2-yl)-2-methyl-7,8-dihydro-[1,3,4]thiadiazolo[2′,3′:2,3]imidazo[4,5-c]pyridin-6(5H)-yl)-2-oxoethoxy)-3-methylbenzenesulfonamide]
[1]
  IC50: 0.089 µM

## O=C(COc1ccccc1C(F)(F)F)N1CCc2nc3sccn3c2C1c1cccnc1F (centres unmarked) [Example 6.2.2, 1-(5-(2-fluoropyridin-3-yl)-7,8-dihydrothiazolo[2′,3′:2,3]-imidazo[4,5-c]pyridin-6(5H)-yl)-2-(2-(trifluoromethyl)-phenoxy)ethanone]
[1]
  IC50: 0.081 µM

## Cc1nn2c3c(nc2s1)CCN(C(=O)COc1ccc(NS(C)(=O)=O)nc1Cl)C3c1cc(C(=O)N(C)C)cs1 (centres unmarked) [Example 1.9.4, 5-(6-(2-((2-Chloro-6-(methylsulfonamido)pyridin-3-yl)oxy)acetyl)-2-methyl-5,6,7,8-tetra-hydro-[1,3,4]thiadiazolo[2′,3′:2,3]imidazo[4,5-c]pyridin-5-yl)-N,N-dimethylthiophene-3-carboxamide]
[2]
  IC50: 0.032 µM

## Cc1nn2c3c(nc2s1)CCN(C(=O)COc1ccc(C(=O)N(C)C)nc1Cl)C3c1ccc(C(=O)N(C)C)o1 (centres unmarked) [Example 1.40.1, 6-Chloro-5-(2-(5-(5-(dimethylcarbamoyl)furan-2-yl)-2-methyl-7,8-dihydro[1,3,4]thiadiazolo[2′,3′:2,4]imidazo[4,5-c]pyridin-6(5H)-yl)-2-oxoethoxy)-N,N-dimethylpicolinamide]
[2]
  IC50: 0.09 µM

## Cc1cnc(C2c3c(nc4sc(C)nn34)CCN2C(=O)COc2ccc(C(=O)N(C)C3CC3)nc2Cl)c(F)c1 (centres unmarked) [Example 1.31.14, 6-chloro-N-cyclopropyl-5-(2-(5-(3-fluoro-5-methylpyridin-2-yl)-2-methyl-7,8-dihydro-[1,3,4]thiadiazolo[2′,3′:2,3]imidazo[4,5-c]pyridin-6(5H)-yl)-2-oxoethoxy)-N-methylpicolinamide]
[1]
  IC50: 0.032 µM

## COC(C)(C)c1ccc(C2c3c(nc4sc(C)nn34)CCN2C(=O)COc2ccc(NS(C)(=O)=O)nc2Cl)c(F)c1 (centres unmarked) [Example 1.81.2, N-(6-chloro-5-(2-(5-(2-fluoro-4-(2-methoxypropan-2-yl)phenyl)-2-methyl-7,8-dihydro-[1,3,4]thiadiazolo[2′,3′:2,3]imidazo[4,5-c]pyridin-6(5H)-yl)-2-oxoethoxy)pyridin-2-yl)methanesulfonamide]
[1]
  IC50: 0.132 µM

## Cc1nn2c3c(nc2s1)CCN(C(=O)COc1ccc(C(N)=O)nc1Cl)C3c1ccc(Cl)cc1F (centres unmarked) [Example 1.4.19, 6-chloro-5-(2-(5-(4-chloro-2-fluorophenyl)-2-methyl-7,8-dihydro-[1,3,4]thiadiazolo[2′,3′:2,3]imidazo[4,5-c]pyridin-6(5H)-yl)-2-oxoethoxy)picolinamide]
[1]
  IC50: 0.005 µM

## CCc1cc(F)ccc1OCC(=O)N1CCc2nc3sccn3c2C1c1ccc(OC)cc1F (centres unmarked) [Example 6.3.4, 2-(2-ethyl-4-fluorophenoxy)-1-(5-(2-fluoro-4-methoxyphenyl)-7,8-dihydrothiazolo[2′,3′:2,3]-imidazo[4,5-c]pyridin-6(5H)-yl)ethanone]
[1]
  IC50: 0.008 µM

## Cc1nc(C)c(C2c3c(nc4sc(C)nn34)CCN2C(=O)COc2ccc(N(C)S(C)(=O)=O)nc2Cl)s1 (centres unmarked) [Example 1.68.6, N-(6-chloro-5-(2-(5-(2,4-dimethylthiazol-5-yl)-2-methyl-7,8-dihydro-[1,3,4]thiadiazolo[2′,3′:2,3]imidazo[4,5-c]-pyridin-6(5H)-yl)-2-oxoethoxy)pyridin-2-yl)-N-methylmethanesulfonamide]
[1]
  IC50: 0.006 µM

## CCc1ncccc1OCC(=O)N1CCc2nc3sc(C)nn3c2C1c1nc(-c2ccccc2)no1 (centres unmarked) [Example 1.11.2, 2-((2-ethylpyridin-3-yl)oxy)-1-(2-methyl-5-(3-phenyl-1,2,4-oxadiazol-5-yl)-7,8-dihydro-[1,3,4]thiadiazolo[2′,3′:2,3]imidazo[4,5-c]pyridin-6(5H)-yl)ethanone]
[1]
  IC50: 0.141 µM

## COC1(c2cnc(C3c4c(nc5sc(C)nn45)CCN3C(=O)COc3ccc(N4CCOCC4)nc3Cl)s2)COC1 (centres unmarked) [Example 1.65.1, 2-((2-chloro-6-morpholinopyridin-3-yl)oxy)-1-(5-(5-(3-methoxyoxetan-3-yl)thiazol-2-yl)-2-methyl-7,8-dihydro-[1,3,4]thiadiazolo[2′,3′:2,3]imidazo[4,5-c]pyridin-6(5H)-yl)ethanone]
[1]
  IC50: 0.208 µM

## CNS(=O)(=O)c1ccc(OCC(=O)N2CCc3nc4sc(C)nn4c3C2c2ccc(Cl)cc2F)c(Cl)n1 (centres unmarked) [Example 1.4.60, 6-chloro-5-(2-(5-(4-chloro-2-fluorophenyl)-2-methyl-7,8-dihydro-[1,3,4]thiadiazolo[2′,3′:2,3]imidazo[4,5-c]pyridin-6(5H)-yl)-2-oxoethoxy)-N-methylpyridine-2-sulfonamide]
[1]
  IC50: 0.036 µM

## CCc1nc(C)ccc1OCC(=O)N1CCc2nc3sccn3c2C1c1ccc(C(F)F)cc1F (centres unmarked) [Example 6.16.2, 1-(5-(4-(difluoromethyl)-2-fluorophenyl)-7,8-dihydro-thiazolo[2′,3′:2,3]imidazo[4,5-c]pyridin-6(5H)-yl)-2-((2-ethyl-6-methylpyridin-3-yl)oxy)ethanone]
[1]
  IC50: 0.008 µM

## Cc1ccc(OCC(=O)N2CCc3nc4sccn4c3C2c2nc3ccccc3s2)cc1 (centres unmarked) [Example 6.12.1, 1-(5-(benzo[d]thiazol-2-yl)-7,8-dihydrothiazolo-[2′,3′:2,3]imidazo[4,5-c]pyridin-6(5H)-yl)-2-(p-tolyloxy)ethanone]
[1]
  IC50: 0.026 µM
